Data on one compound can be found in patent publication US10927115B2, “Substituted heterocycles for targeting Hsp90” (Duke University, priority 2012, dated 2021).

One data set deals with Huh7 cell line. The data set is described as follows: Fluorescence microscopy uptake of probe in tumor cells. The class given is cell-based, human. Particulars: micromolar concentrations; Huh7, non-metastatic; FIG. 4. An excerpt:
(§1) In one experiment, the fluorescein compound 10 was applied at micromolar concentrations to four types of tumor cells. […] The probe (10) fluoresces to give green staining in images obtained; in FIG. 4, the green staining appears white.

For the next data set, the system named is MCF-7. The description is as above. The class given is cell-based, human. The note with it: micromolar concentrations, FIG. 4.
Description: as §1

The next data set has as its system MCF10 (benign) cells. Briefly: Probe detection of Hsp90 in cells ± membrane permeabilization with Triton X 100. The class given is cell-based. The note with it: MCF10, non-permeabilized; FIG. 5B. As to the method: (§2) In another experiment, MCF7 (metastatic) and MCF10 (benign) cells were treated with an Hsp90 antibody±membrane permeabilization with Triton X 100. […] After permeabilization the antibody recognizes intracellular Hsp90. […] The experiment was also performed using fluorescein compound 10. […] In FIGS. 5A-5B the green staining from compound 10 fluorescence appears white, while blue from the DAPI-stained nuclei appears gray.

For the next data set, the system named is MCF7 (metastatic) cells. Described as above. The class given is cell-based. The note with it: FIG. 5B. As to the method: as §2
The test system of data set [1] is MCF7 cells. The data set is described as follows: Compound 10 fluorescence in MCF7 cells with anti-Hsp90 antibody or competing compound 5. Particulars: FIG. 6B. Format: cell-based. The method, then:
In FIG. 6B, the compound was added in the presence of an antibody to Hsp90. […] DAPI (blue) highlights the nucleus of the cell. In FIG. 6 the green staining from compound 10 fluorescence appears white, while blue from the DAPI-stained nuclei appears gray.

Another data set has as its system BT474 cells. The data set is described as follows: Anion exchange chromatography of extracts of cells treated with compound 10. Format: cell-based. Particulars: BT474 cells treated with compound 10; peak at 49 minutes. As to the method: (§3) Hsp90 was purified from pig mammary gland as described in Hughes et al., Bioorg Med Chem. 2012, 20(10):3298-3305. The purified protein (0.3 g) was mixed with an excess of compound 10. The unbound probe was removed by dialysis and the labeled protein subjected to microanion exchange chromatography using a Pharmacia SMART system. Column fractions (100 μL) were collected and analyzed for fluorescence in a plate reader. […] The chromatography experiment was then repeated on cell extracts prepared from MCF7 and BT474 cells treated with compound 10.

The subject of data set [2] is MCF7 cells. Described as above. The class given is cell-based. The note with it: MCF7 cells treated with compound 10; peak at 49 minutes. The method, then:
as §3

A further data set has as its system MDA-MB-468 tumor. Briefly: In vivo detection of compound 10 with optical spectroscopy. The note with it: 1 mg via tail vein, FIG. 15. More on the design: species or system SCID mice. The method, then: MDA-MB-468 tumor cells (1 M cells/mouse) were injected to the flank of SCID mice. Three weeks later, when tumor size reached 5-8 mm in diameter, the experiment was performed. Baseline autofluorescence levels were measured for tumor and normal tissues (skin adjacent to tumor). 1 mg or 0.5 mg of compound 10 was injected via tail vein. After drug injection, fluorescence signals were measured with the optical spectroscopy (˜30 min). Two days after injection, measurement of fluorescence signal was repeated.
Normal: Normal skin adjacent to tumor. All data are normalized to peak fluorescence intensity to compare fluorescence line shapes. […] Measurements were made within a few minutes of injection.

A further data set relates to Hsp90. Briefly: Recovery of drug-bound protein from tumors of mice by micro anion-exchange chromatography. Particulars: 1 mg IV, tumors excised after 2 hours, FIG. 17. Format: in vivo. As to the method:
Mice were injected (IV) with 1 mg of compound 10 and the tumors were excised from the animal after 2 hours. Tissue extracts were prepared and characterized by micro anion-exchange chromatography. Column fractions were analyzed for the presence of compound 10 by fluorescence and mass spectrometry.

As for `Cc1nn(-c2ccc(C(N)=O)c(NCCCOCCOCCOCCOCCOCCCNC(=S)Nc3ccc4c(c3)C(=O)OC43c4ccc(O)cc4Oc4cc(O)ccc43)c2)c2c1C(=O)CC(C)(C)C2` [Compound 10, 2-((1-((3′,6′-dihydroxy-3-oxo-3H-spiro[isobenzofuran-1,9′-xanthen]-5-yl)amino)-1-thioxo-6,9,12,15,18-pentaoxa-2-azahenicosan-21-yl)amino)-4-(3,6,6-trimethyl-4-oxo-4,5,6,7-tetrahydro-1H-indazol-1-yl)benzamide], the results for the “uptake of the probe” value in the data set with Huh7 cell line and with MCF-7 were “does not absorb the probe” and “take up the probe readily”, respectively. Further, the “probe entry and detection of Hsp90” value with MCF10 (benign) cells is “not in MCF10 cells”; in the data set with MCF7 (metastatic) cells (MCF7, non-permeabilized), “enters and detects Hsp90”. Further, the “detection of intracellular Hsp90 following permeabilization” value in the data set with MCF7 (metastatic) cells (MCF7 compared with MCF10, Triton X 100) is listed as “detects more intracellular Hsp90 in MCF7s”. In the data set on MCF7 cells [1], the “localisation of the probe in the presence of an antibody to Hsp90” value is given as “accumulate at the membrane”. Moreover, the “fluorescence peak of cell extract” value in the data set with BT474 cells and with MCF7 cells [2] was “co-elutes with Hsp90” in each case. The “fluorescence signal in tumor, Day 3” value in the data set with MDA-MB-468 tumor is on record as “still retains FITC signal”. Besides, the “fluorescence signal at normal site, Day 3” value in the data set on MDA-MB-468 tumor (normal skin adjacent to tumor) is “declined to pre-injection baseline level”. For the same compound, in the data set with MDA-MB-468 tumor (within a few minutes of injection), the “fluorescence signal, normal skin versus tumor, Day 0” value was “Normal shows higher signal than tumor”. The “two minor peaks of fluorescence of tumor extract” value in the data set with Hsp90 (fractions 27-35) is on record as “attributable to binding to degraded forms of the N terminal domain of Hsp90”. Further, the “major peak of fluorescence of tumor extract” value in the data set on Hsp90 (fractions 49-53) is listed as “correlates with elution of full length Hsp90”.
